Data as given in article PMC9576799, “Discovery of small molecule inhibitors that effectively disrupt IQGAP1-Cdc42 interaction in breast cancer cells” (Scientific Reports, 2022).

Target: T1, GST-IQGAP1-C / His-Cdc42-Q61L (Homo sapiens, UniProt P46940)
T1 construct: the C-terminal half of IQGAP1 (comprising amino acids 864–1657) containing a GST-tag; made in house; host or cells: Escherichia coli (BL-21 for GST-IQGAP1-C)
T1 sequence (P46940 864-1657): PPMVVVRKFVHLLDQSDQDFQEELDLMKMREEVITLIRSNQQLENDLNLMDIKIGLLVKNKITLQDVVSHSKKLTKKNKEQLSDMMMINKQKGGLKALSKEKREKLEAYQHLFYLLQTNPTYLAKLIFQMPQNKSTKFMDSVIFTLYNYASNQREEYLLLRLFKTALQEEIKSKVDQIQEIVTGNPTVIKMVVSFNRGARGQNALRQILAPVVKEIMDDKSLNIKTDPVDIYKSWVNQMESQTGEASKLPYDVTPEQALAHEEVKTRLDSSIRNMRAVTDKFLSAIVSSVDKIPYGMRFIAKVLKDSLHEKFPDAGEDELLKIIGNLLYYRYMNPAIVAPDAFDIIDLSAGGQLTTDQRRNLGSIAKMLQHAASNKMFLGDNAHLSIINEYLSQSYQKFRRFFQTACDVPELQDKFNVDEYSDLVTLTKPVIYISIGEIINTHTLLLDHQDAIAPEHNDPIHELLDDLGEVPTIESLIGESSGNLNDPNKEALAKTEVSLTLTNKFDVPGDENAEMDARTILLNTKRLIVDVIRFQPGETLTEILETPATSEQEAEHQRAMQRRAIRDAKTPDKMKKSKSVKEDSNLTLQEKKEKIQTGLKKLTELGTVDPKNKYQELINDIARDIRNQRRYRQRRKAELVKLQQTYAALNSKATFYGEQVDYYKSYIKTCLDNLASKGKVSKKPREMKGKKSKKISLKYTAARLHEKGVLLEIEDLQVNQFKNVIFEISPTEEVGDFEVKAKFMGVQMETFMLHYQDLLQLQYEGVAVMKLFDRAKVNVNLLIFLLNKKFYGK
Experiment: HTRF IQGAP1-Cdc42 binding assay (validation / confirmatory)
Conditions: 50 nM His-Cdc42-Q61L, 1.5 nM GST-IQGAP1-C
Experimental: Recombinant His-Cdc42-Q61L, GST-IQGAP1-C in combination with acceptor XL665 conjugated anti-His antibody (Anti-His-XL665) and donor Eu-cryptate conjugated anti-GST antibody (anti-GST-cryptate) were used for the HTRF assay to perform a high throughput screening of compound libraries in 1536-well white solid bottom medium-binding plates (Greiner Bio-One).
For the assay, His-Cdc42-Q61L and GST-IQGAP1-C proteins were diluted and pre-mixed in the binding buffer (50 mM Tris, pH 7.5, 150 mM NaCl and 0.01% Triton-X100) to final assay concentrations of 50 nM His-Cdc42-Q61L and 1.5 nM GST-IQGAP1-C. As control, 1.5 nM GST-IQGAP1-C in the absence of His-Cdc42-Q61L was used to gauge the maximal potential inhibition (IC100). Anti-His-XL665 and anti-GST-cryptate antibodies were prepared as threefold concentrated working mixture in binding buffer just prior to dispensing, with final assay concentrations of 5 ng/μL and 0.7 ng/µL, respectively. Pre-mixed proteins (4 µL/well) were dispensed to assay plates with a BioRAPTR FRD™ dispenser. […] The signal was detected immediately with an Envision plate reader (Perkin Elmer) using the HTRF settings (excitation at 340 nm, dual emission at 665 nm and 620 nm). […] The data were calculated as the ratio 665/620 × 10^4 to normalize for any effects in the donor channel. […]

Cc1cccc(NC(=O)c2c(NC(=O)C(F)(F)F)sc3c2CCCCC3)c1 [NCGC00098561]
EC50: 7.94 µM | Emax (3 h, read-out: efficacy, HTRF validation assay): 84%
